We go through one substance from patent US7615380B2, “Methods for modulating an immune response by modulating KRC activity” (President and Fellows of Harvard College, priority 2001, dated 2009).

The subject of this assay is TNFα. Briefly: Northern blot of endogenous TNFα in stably transfected RAW macrophage clones. Format: cell-based. The following applies: stable RAW transfectants, baseline. On the procedure:
Northern blotting analysis was performed using total RNA made from RAW cell lines transfected with an empty vector as a control and from a panel of 9 independent RAW clones stably transfected with full-length KRC (upper) and 3 RAW clones stably transfected with dominant negative KRC (lower). The blot was probed with a TNFα cDNA and with HPRT as loading control.
HEK293 cells ([…] per well) were seeded in 6 well plates, and 12 h later cells were transfected with EFECTENE™ (Qiagen) with 25 ng of a 2XNFκB-luciferase (Luc) reporter gene plasmid and 0.5 μg of the indicated TRAF and KRC expression vectors. Total amounts of transfected DNA were kept constant by supplementing with control empty expression vector plasmids as needed. Cell extracts were prepared 24 h after transfection, and reporter gene activity was determined via the luciferase assay system (PROMEGA). PRSV-βGal vector (50 ng) was used to normalize for transfection efficiency by measuring β galactosidase activity using the Galacton-PLUS substrate system (TROPIX, Inc.). Whenever indicated, the cells were treated for 4 hours with TNFα or IL-1 (10 ng/ml). To generate stable transfectants, EFECTENE™ mediated transfection of the RAW cell line was performed and clones were selected and maintained in complete medium supplemented with G418 (2 mg/ml). […]

On to “KRC: full-length KRC zinc finger protein (SEQ ID NO:2) overexpressed from an expression vector”, for which the “endogenous TNFα mRNA expression” value is “substantial decrease of baseline TNFα mRNA transcripts”.
